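Where inhibition never reached the appropriate level, the endpoint shown equals the highest concentration tested. Otherwise, values were interpolated linearly from a five-concentration, 48-hour dose response in 96-well plates. TGI marks complete inhibition of growth.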 Where a SMILES comes first, the peptide text is derived from it. Bridges are numbered along the chain shown (N, C = ends).
Columns and labels:
Assay in all cases: inhibition of tumour cell growth, NCI panel, 48 h
ACHN renal = test system: ACHN renal
KM12 colon = test system: KM12 colon
RXF 393 renal = test system: RXF 393 renal
T-47D breast = test system: T-47D breast
OVCAR-8 ovarian = test system: OVCAR-8 ovarian
LOX IMVI melanoma = test system: LOX IMVI melanoma
COLO 205 colon = test system: COLO 205 colon
NCI-H226 lung = test system: NCI-H226 lung
SK-MEL-28 melanoma = test system: SK-MEL-28 melanoma
SF-268 CNS = test system: SF-268 CNS
NCI/ADR-RES ovarian = test system: NCI/ADR-RES ovarian
SNB-19 CNS = test system: SNB-19 CNS
NCI-H522 lung = test system: NCI-H522 lung
U251 CNS = test system: U251 CNS
HL-60(TB) leukemia = test system: HL-60(TB) leukemia
NCI-H23 lung = test system: NCI-H23 lung
MDA-MB-435 = test system: MDA-MB-435
IGROV1 ovarian = test system: IGROV1 ovarian
EKVX NSCLC = test system: EKVX NSCLC
DU-145 prostate = test system: DU-145 prostate
MCF7 breast = test system: MCF7 breast
786-0 renal = test system: 786-0 renal
HCT-116 colon = test system: HCT-116 colon
SK-MEL-5 melanoma = test system: SK-MEL-5 melanoma
HOP-92 NSCLC = test system: HOP-92 NSCLC
K-562 leukemia = test system: K-562 leukemia
OVCAR-3 ovarian = test system: OVCAR-3 ovarian
OVCAR-5 ovarian = test system: OVCAR-5 ovarian
OVCAR-4 ovarian = test system: OVCAR-4 ovarian
CAKI-1 renal = test system: CAKI-1 renal
HT29 colon = test system: HT29 colon
MOLT-4 leukemia = test system: MOLT-4 leukemia
RPMI-8226 leukemia = test system: RPMI-8226 leukemia
UACC-62 melanoma = test system: UACC-62 melanoma
HCT-15 colon = test system: HCT-15 colon
TK-10 renal = test system: TK-10 renal
M14 melanoma = test system: M14 melanoma
PC-3 prostate = test system: PC-3 prostate
HS 578T breast = test system: HS 578T breast
MDA-N = test system: MDA-N
SW-620 colon = test system: SW-620 colon
CCRF-CEM leukemia = test system: CCRF-CEM leukemia
HOP-62 NSCLC = test system: HOP-62 NSCLC
MALME-3M melanoma = test system: MALME-3M melanoma
SR leukemia = test system: SR leukemia
SF-539 CNS = test system: SF-539 CNS
MDA-MB-231 breast = test system: MDA-MB-231 breast
HCC-2998 colon = test system: HCC-2998 colon
NCI-H460 lung = test system: NCI-H460 lung
SN12C renal = test system: SN12C renal
SK-OV-3 ovarian = test system: SK-OV-3 ovarian
UACC-257 melanoma = test system: UACC-257 melanoma
SF-295 CNS = test system: SF-295 CNS
UO-31 renal = test system: UO-31 renal
A549 NSCLC = test system: A549 NSCLC
BT-549 breast = test system: BT-549 breast
SNB-75 CNS = test system: SNB-75 CNS
A498 renal = test system: A498 renal
SK-MEL-2 melanoma = test system: SK-MEL-2 melanoma

Measured: TGI

C[C@@H]([C@H]1CC[C@@]2(C)[C@@H]3CC[C@@H]4C(=CC3=CC[C@]12C)CC[C@H](N(C)C)C4(C)C)N(C)C
> 100 µM: ACHN renal | KM12 colon | RXF 393 renal | T-47D breast | OVCAR-8 ovarian | LOX IMVI melanoma | COLO 205 colon | NCI-H226 lung | SK-MEL-28 melanoma | SF-268 CNS | NCI/ADR-RES ovarian | SNB-19 CNS | NCI-H522 lung | U251 CNS | HL-60(TB) leukemia | NCI-H23 lung | MDA-MB-435 | IGROV1 ovarian | EKVX NSCLC | DU-145 prostate | MCF7 breast | 786-0 renal | HCT-116 colon | SK-MEL-5 melanoma | HOP-92 NSCLC | K-562 leukemia | OVCAR-3 ovarian | OVCAR-5 ovarian | OVCAR-4 ovarian | CAKI-1 renal | HT29 colon | MOLT-4 leukemia | RPMI-8226 leukemia | UACC-62 melanoma | HCT-15 colon | TK-10 renal | M14 melanoma | PC-3 prostate | HS 578T breast | MDA-N | SW-620 colon | CCRF-CEM leukemia | HOP-62 NSCLC | MALME-3M melanoma | SR leukemia | SF-539 CNS | MDA-MB-231 breast | HCC-2998 colon | NCI-H460 lung | SN12C renal | SK-OV-3 ovarian | UACC-257 melanoma | SF-295 CNS

COc1ccc(NCn2nc(CCCCCCCCc3nn(CNc4ccc(OC)cc4)c(=S)o3)oc2=S)cc1
> 100 µM: ACHN renal | UO-31 renal | KM12 colon | RXF 393 renal | COLO 205 colon | NCI-H226 lung | SK-MEL-28 melanoma | SF-268 CNS | NCI/ADR-RES ovarian | SNB-19 CNS | NCI-H522 lung | U251 CNS | A549 NSCLC | NCI-H23 lung | MDA-MB-435 | EKVX NSCLC | DU-145 prostate | MCF7 breast | 786-0 renal | HCT-116 colon | SK-MEL-5 melanoma | BT-549 breast | HOP-92 NSCLC | K-562 leukemia | OVCAR-5 ovarian | OVCAR-4 ovarian | SNB-75 CNS | CAKI-1 renal | HT29 colon | MOLT-4 leukemia | A498 renal | RPMI-8226 leukemia | UACC-62 melanoma | HCT-15 colon | TK-10 renal | M14 melanoma | PC-3 prostate | MDA-N | SW-620 colon | HOP-62 NSCLC | MALME-3M melanoma | MDA-MB-231 breast | HCC-2998 colon | NCI-H460 lung | SN12C renal | SK-OV-3 ovarian | UACC-257 melanoma | SK-MEL-2 melanoma | SF-295 CNS

COC(=O)C1CCC(=O)NCCCCC(NC(=O)C(N)CC(=O)O)C(=O)N1 (stereo not drawn) (H-Asp-Lys-Glu-OMe; lactam 2-3; configuration not given here)
> 100 µM: ACHN renal | UO-31 renal | KM12 colon | RXF 393 renal | T-47D breast | OVCAR-8 ovarian | LOX IMVI melanoma | COLO 205 colon | NCI-H226 lung | SK-MEL-28 melanoma | SF-268 CNS | NCI/ADR-RES ovarian | SNB-19 CNS | NCI-H522 lung | U251 CNS | A549 NSCLC | HL-60(TB) leukemia | NCI-H23 lung | MDA-MB-435 | IGROV1 ovarian | EKVX NSCLC | DU-145 prostate | MCF7 breast | 786-0 renal | HCT-116 colon | SK-MEL-5 melanoma | BT-549 breast | K-562 leukemia | OVCAR-3 ovarian | OVCAR-5 ovarian | OVCAR-4 ovarian | SNB-75 CNS | CAKI-1 renal | HT29 colon | MOLT-4 leukemia | RPMI-8226 leukemia | UACC-62 melanoma | HCT-15 colon | TK-10 renal | M14 melanoma | PC-3 prostate | HS 578T breast | MDA-N | SW-620 colon | CCRF-CEM leukemia | HOP-62 NSCLC | MALME-3M melanoma | SR leukemia | SF-539 CNS | MDA-MB-231 breast | HCC-2998 colon | NCI-H460 lung | SN12C renal | SK-OV-3 ovarian | UACC-257 melanoma | SK-MEL-2 melanoma | SF-295 CNS
